Here are results for 27 compounds from patent US10709709B2, “Substituted carbonucleoside derivatives useful as anticancer agents” (Pfizer Inc., priority 2016, dated 2020).

This assay has as its target PRMT5/MEP50 protein complex (Homo sapiens (Human), UniProt O14744). Description: PRMT5 biochemical assay (3H-SAM methylation of H4(1-21) peptide, filter plate scintillation). The note with it: 10 nM PRMT5/MEP50 complex, 200 nM H4(1-21) peptide, 1 uM SAM, 25 minute incubation at room temperature. In outline:
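Human PRMT5/MEP50 complex (10 nM) methylating H4(1-21) peptide (200 nM) with 3H/unlabelled SAM (1 uM final) in pH 8.5 Tris buffer, 25 min at room temperature. Stopped with TCA, 3H-peptide captured on filter plates and scintillation-counted. IC50 from 4-parameter fit.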

Usually IC50 stands for the concentration that gives 50% inhibition. The low end stands for greater potency in that assay, the high end for weaker potency in that assay.

PRMT5/MEP50 protein complex, sequence (O14744 other isoform, or with tags, fused parts or gaps): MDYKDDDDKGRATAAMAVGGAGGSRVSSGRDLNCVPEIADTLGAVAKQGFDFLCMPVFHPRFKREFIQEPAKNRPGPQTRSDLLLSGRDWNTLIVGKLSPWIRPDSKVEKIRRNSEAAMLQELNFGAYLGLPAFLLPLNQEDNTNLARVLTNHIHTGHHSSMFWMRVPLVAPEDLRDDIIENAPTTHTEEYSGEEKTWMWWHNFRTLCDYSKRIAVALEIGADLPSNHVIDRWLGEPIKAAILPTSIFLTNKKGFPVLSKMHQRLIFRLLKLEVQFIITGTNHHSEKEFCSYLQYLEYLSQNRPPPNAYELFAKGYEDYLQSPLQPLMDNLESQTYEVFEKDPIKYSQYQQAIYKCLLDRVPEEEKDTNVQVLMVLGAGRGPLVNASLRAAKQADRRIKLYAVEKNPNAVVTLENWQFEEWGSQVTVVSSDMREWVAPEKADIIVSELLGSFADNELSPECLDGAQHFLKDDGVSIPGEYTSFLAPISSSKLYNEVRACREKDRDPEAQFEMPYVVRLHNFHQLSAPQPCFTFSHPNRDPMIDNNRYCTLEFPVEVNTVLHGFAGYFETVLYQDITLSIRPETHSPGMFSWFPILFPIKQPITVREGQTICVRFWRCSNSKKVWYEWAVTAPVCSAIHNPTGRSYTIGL
PRMT5/MEP50 protein complex, sequence (Q9BQA1 whole entry partner): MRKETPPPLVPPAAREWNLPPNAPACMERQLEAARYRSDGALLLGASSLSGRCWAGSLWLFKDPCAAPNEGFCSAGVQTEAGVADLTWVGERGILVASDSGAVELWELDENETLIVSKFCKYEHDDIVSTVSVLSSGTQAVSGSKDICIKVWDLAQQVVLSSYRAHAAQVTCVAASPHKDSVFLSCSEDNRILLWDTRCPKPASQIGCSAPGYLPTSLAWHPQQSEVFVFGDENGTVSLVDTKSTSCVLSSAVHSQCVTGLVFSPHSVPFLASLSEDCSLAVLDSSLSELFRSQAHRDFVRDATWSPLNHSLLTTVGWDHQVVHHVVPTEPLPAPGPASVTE

The compound `Cc1ncnc2c1ccn2[C@@H]1C[C@H]([C@@H](O)c2cccc3c2CNCC3)[C@@H](O)[C@H]1O` [Example 57, (1S,2R,3R,5R)-3-((R)-hydroxy(1,2,3,4-tetrahydroisoquinolin-8-yl)methyl)-5-(4-methyl-7H-pyrrolo[2,3-d]pyrimidin-7-yl)cyclopentane-1,2-diol] gave an IC50 of 48 nM.

As to `Cc1ncnc2c1ccn2[C@@H]1C[C@H](Oc2ccc(Cl)c(Cl)c2CN)[C@@H](O)[C@H]1O` [Example 150, (1S,2S,3S,5R)-3-(2-(aminomethyl)-3,4-dichlorophenoxy)-5-(4-methyl-7H-pyrrolo[2,3-d]pyrimidin-7-yl)cyclopentane-1,2-diol], the IC50 worked out at 71 nM.

Compound `Cc1ncnc2c1ccn2[C@@H]1C[C@H](Oc2cccc3c2CNC[C@@H](C)O3)[C@@H](O)[C@H]1O` [Example 209, (1S,2S,3S,5R)-3-(((R)-2-methyl-2,3,4,5-tetrahydrobenzo[f][1,4]oxazepin-6-yl)oxy)-5-(4-methyl-7H-pyrrolo[2,3-d]pyrimidin-7-yl)cyclopentane-1,2-diol] had an IC50 of 5 nM.

`Cc1ncnc2c1ccn2[C@@H]1C[C@H](Oc2cccc3c2[C@@H](N)CC3)[C@@H](O)[C@H]1O` [Example 141, (1S,2S,3S,5R)-3-(((S)-3-amino-2,3-dihydro-1H-inden-4-yl)oxy)-5-(4-methyl-7H-pyrrolo[2,3-d]pyrimidin-7-yl)cyclopentane-1,2-diol] showed an IC50 of 3930 nM.

On to `CN(c1ccnc(N)n1)[C@@H]1C[C@H]([C@H](O)c2ccc(F)c(F)c2)[C@@H](O)[C@H]1O` [Example 39, (1R,2S,3R,5R)-3-[(2-aminopyrimidin-4-yl)(methyl)amino]-5-[(S)-(3,4-difluorophenyl)(hydroxy)methyl] cyclopentane-1,2-diol], for which the IC50 stood at 114 nM.

Compound `Cc1ncnc2c1ccn2[C@@H]1C[C@H](C(F)c2ccc(F)cc2)[C@@H](O)[C@H]1O` (single isomer, unassigned) [Example 21] displayed an IC50 of 217 nM.

In turn, `CO[C@@H]1C[C@H](n2ccc3c(C)ncnc32)[C@@H](O)[C@H]1O` [Example 61, (1R,2R,3R,5S)-3-methoxy-5-(4-methyl-7H-pyrrolo[2,3-d]pyrimidin-7-yl)cyclopentane-1,2-diol] yielded an IC50 of 2120 nM.

The compound `CN1CCc2c(cccc2O[C@H]2C[C@@H](n3cc(F)c4c(N)ncnc43)[C@H](O)[C@@H]2O)C1` [Example 116, (1S,2S,3R,5S)-3-(4-amino-5-fluoro-7H-pyrrolo[2,3-d]pyrimidin-7-yl)-5-((2-methyl-1,2,3,4-tetrahydroisoquinolin-5-yl)oxy)cyclopentane-1,2-diol] registered an IC50 of 257 nM.

Turning to `Cc1ncnc2c1ccn2[C@@H]1C[C@H](Oc2ccccc2C#N)[C@@H](O)[C@H]1O` [Example 64, 2-(((1S,2S,3S,4R)-2,3-dihydroxy-4-(4-methyl-7H-pyrrolo[2,3-d]pyrimidin-7-yl)cyclopentyl)oxy)benzonitrile], the IC50 was greater than 200000 nM.

The compound `Cc1ncnc2c1ccn2[C@@H]1C[C@H](Oc2cccc3c2CCNC3)[C@@H](O)[C@H]1O` [Example 80, (1S,2S,3R,5S)-3-(4-methyl-7H-pyrrolo[2,3-d]pyrimidin-7-yl)-5-((1,2,3,4-tetrahydroisoquinolin-5-yl)oxy)cyclopentane-1,2-diol] returned an IC50 of 130 nM.

`Cc1ncnc2c1ccn2[C@@H]1C[C@H](Oc2cccc(C(F)(F)F)c2CN)[C@@H](O)[C@H]1O` [Example 144, (1S,2S,3S,5R)-3-(2-(aminomethyl)-3-(trifluoromethyl)phenoxy)-5-(4-methyl-7H-pyrrolo[2,3-d]pyrimidin-7-yl)cyclopentane-1,2-diol] displayed an IC50 of 77 nM.

With `Cc1ncnc2c1ccn2[C@@H]1C[C@H](Oc2ccc(F)cc2O)[C@@H](O)[C@H]1O` [Example 136, (1S,2S,3S,5R)-3-(4-fluoro-2-hydroxyphenoxy)-5-(4-methyl-7H-pyrrolo[2,3-d]pyrimidin-7-yl)cyclopentane-1,2-diol], inhibition was half-maximal at 11100 nM (IC50).

`Cc1ncnc2c1ccn2[C@@H]1C[C@H](Oc2cccc3c2CN(C)C3)[C@@H](O)[C@H]1O` [Example 82, (1S,2S,3S,5R)-3-[(2-methyl-2,3-dihydro-1H-isoindol-4-yl)oxy]-5-(4-methyl-7H-pyrrolo[2,3-d]pyrimidin-7-yl)cyclopentane-1,2-diol] yielded an IC50 of 991 nM.

As for `Cc1ncnc2c1ccn2[C@@H]1C[C@H](Oc2cccc3c2C(N)CCC3)[C@@H](O)[C@H]1O` (single isomer, unassigned) [Example 187], the IC50 came to 971 nM.

The compound `CC(F)(F)c1cc2c(c(O[C@H]3C[C@@H](n4cc(F)c5c(N)ncnc54)[C@H](O)[C@@H]3O)c1)CNCC2` [Example 112, (1S,2S,3R,5S)-3-(4-amino-5-fluoro-7H-pyrrolo[2,3-d]pyrimidin-7-yl)-5-((6-(1,1-difluoroethyl)-1,2,3,4-tetrahydroisoquinolin-8-yl)oxy)cyclopentane-1,2-diol] gave an IC50 of 4 nM.

`Cc1ncnc2c1ccn2[C@@H]1C[C@H](Oc2cc(C(C)(C)O)cc3c2CNCC3)[C@@H](O)[C@H]1O` [Example 97, (1S,2S,3S,5R)-3-((6-(2-hydroxypropan-2-yl)-1,2,3,4-tetrahydroisoquinolin-8-yl)oxy)-5-(4-methyl-7H-pyrrolo[2,3-d]pyrimidin-7-yl)cyclopentane-1,2-diol] registered an IC50 of 65 nM. This IC50 is about 16-fold higher than that of the compound before.

Regarding `Cc1ncnc2c1ccn2[C@@H]1C[C@H](Oc2ccc(F)cc2CO)[C@@H](O)[C@H]1O` [Example 135, (1S,2S,3S,5R)-3-(4-fluoro-2-(hydroxymethyl)phenoxy)-5-(4-methyl-7H-pyrrolo[2,3-d]pyrimidin-7-yl)cyclopentane-1,2-diol], half-maximal inhibition (IC50) was put at 10200 nM.

`Nc1ncnc2c1ccn2[C@@H]1C[C@H]([C@@H](O)c2ccc(Cl)c(F)c2)[C@@H](O)[C@H]1O` [Example 24, (1R,2S,3R,5R)-3-(4-amino-7H-pyrrolo[2,3-d]pyrimidin-7-yl)-5-((R)-(4-chloro-3-fluorophenyl)(hydroxy)methyl)cyclopentane-1,2-diol] showed a concentration for half-maximal inhibition (IC50) of 71 nM. This IC50 is about 140-fold lower than that of the compound before.

Compound `Cc1ncnc2c1ccn2[C@@H]1C[C@H](Oc2ccc(F)cc2C(N)=O)[C@@H](O)[C@H]1O` [Example 70, 2-(((1S,2S,3S,4R)-2,3-dihydroxy-4-(4-methyl-7H-pyrrolo[2,3-d]pyrimidin-7-yl)cyclopentyl)oxy)-5-fluorobenzamide] returned an IC50 of 13600 nM. This IC50 is about 190-fold higher than that of the compound before.

In turn, `Cc1cc(N(C)[C@@H]2C[C@H]([C@@H](O)c3ccc(F)c(F)c3)[C@@H](O)[C@H]2O)ncn1` [Example 34, (1S,2R,3R,5R)-3-[(R)-(3,4-difluorophenyl)(hydroxy)methyl]-5-[methyl(6-methylpyrimidin-4-yl)amino] cyclopentane-1,2-diol] came in with an IC50 of 59500 nM.

In the case of `Cc1ncnc2c1ccn2[C@@H]1C[C@H](C(C)(C)O)[C@@H](O)[C@H]1O` [Example 18, (1S,2R,3S,5R)-3-(2-hydroxypropan-2-yl)-5-(4-methyl-7H-pyrrolo[2,3-d]pyrimidin-7-yl)cyclopentane-1,2-diol], the IC50 came to 3700 nM. This IC50 is about 16-fold lower than that of the compound before.

Compound `CNCc1cc(F)ccc1O[C@H]1C[C@@H](n2ccc3c(C)ncnc32)[C@H](O)[C@@H]1O` [Example 72, (1S,2S,3S,5R)-3-(4-fluoro-2-((methylamino)methyl)phenoxy)-5-(4-methyl-7H-pyrrolo[2,3-d]pyrimidin-7-yl)cyclopentane-1,2-diol] yielded an IC50 of 22 nM.

`Cc1cc(F)ccc1O[C@H]1C[C@@H](n2ccc3c(C)ncnc32)[C@H](O)[C@@H]1O` [Example 75, (1S,2S,3S,5R)-3-(4-fluoro-2-methylphenoxy)-5-(4-methyl-7H-pyrrolo[2,3-d]pyrimidin-7-yl)cyclopentane-1,2-diol] returned a concentration for half-maximal inhibition (IC50) of 37800 nM.

Turning to `Cc1ncnc2c1ccn2[C@@H]1C[C@H](Oc2ccc(F)cc2CN(C)C)[C@@H](O)[C@H]1O` [Example 71, (1S,2S,3S,5R)-3-(2-((dimethylamino)methyl)-4-fluorophenoxy)-5-(4-methyl-7H-pyrrolo[2,3-d]pyrimidin-7-yl)cyclopentane-1,2-diol], the IC50 came to 69 nM.

Turning to `Cc1ncnc2c1ccn2[C@H]1C[C@@H](Oc2ccc(F)cc2CN)[C@H](O)[C@@H]1O` [Example 67, (1R,2R,3R,5S)-3-(2-(aminomethyl)-4-fluorophenoxy)-5-(4-methyl-7H-pyrrolo[2,3-d]pyrimidin-7-yl)cyclopentane-1,2-diol], the IC50 was greater than 200000 nM.

For `Cc1nc(N)nc(N(C)[C@@H]2C[C@H]([C@H](O)c3ccc(F)c(F)c3)[C@@H](O)[C@H]2O)n1` [Example 41, (1R,2S,3R,5R)-3-[(4-amino-6-methyl-1,3,5-triazin-2-yl)(methyl)amino]-5-[(S)-(3,4-difluorophenyl) (hydroxy)methyl]cyclopentane-1,2-diol], the IC50 was found to be 46 nM.

`Cc1nccc(N(C)[C@@H]2C[C@H]([C@@H](O)c3ccc(F)c(F)c3)[C@@H](O)[C@H]2O)n1` [Example 36, (1S,2R,3R,5R)-3-[(R)-(3,4-difluorophenyl)(hydroxy)methyl]-5-[methyl(2-methylpyrimidin-4-yl)amino] cyclopentane-1,2-diol] displayed an IC50 of 2700 nM.
